This is an account of results in paper PMC7024213, “Absolute Configuration of Mycosporine-Like Amino Acids, Their Wound Healing Properties and In Vitro Anti-Aging Effects” (Marine Drugs, 2019).

Experiment [1] concerns pentosidine-like AGEs. Briefly: Inhibition of advanced glycation end products (AGEs) formation, BSA/D-ribose fluorescence assay. In kind it is biochemical. The conditions noted are these: for IC50: BSA 10 mg/mL, D-ribose 0.5 M, 37 °C, 24 h. How it is done:
The anti-AGE assay was carried out following the methodology previously reported by Séro et al.. Briefly, the samples (1 µM to 3 mM) were incubated with D-ribose (0.5 M) and bovine serum albumin (BSA, 10 mg/mL) in a Na-phosphate buffer (50 mM pH 7.4); the solutions were incubated in black microtiter plates (96 wells) at 37 °C for 24 h in a closed system before AGE fluorescence measurement. Both vesperlysines-like (λexc370 nm; λem440 nm) and pentosidine-like (λexc335 nm; λem385 nm) AGE fluorescence were measured using a microplate spectrofluorometer Infinite M200 (Tecan, Lyon, France). To avoid quenching phenomena, the fluorescence resulting from the incubation in the same conditions of BSA (10 mg/mL) and the tested extract (1 µM to 3 mM) was subtracted from each measurement. The negative control, i.e., 100% inhibition of AGEs formation, consisted of wells with only BSA. A control, i.e., no inhibition of AGEs formation, consisted of wells with BSA (10 mg/mL) and D-ribose (0.5 M). The final volume assay was 100 µL. The percentage of AGE formation was calculated as follows for each extract concentration: AGEs (%) = (fluorescence intensity [sample]−fluorescence [blank of sample]/fluorescence intensity [control]−fluorescence [blank of control]) × 100.
Dose-effect curves were best fitted with a sigmoidal dose-response equation [four parameters logistic model: bottom and top plateaus, the EC50, and the slope factor (Hill’s slope)] using Sigma Plot 14.0 software, which enabled calculation of the IC50 values. The acceptance criteria were established by the correlation coefficient (r²) > 0.97. Results were compared with those of reference products, aminoguanidine and rutin.

For experiment [2], the target named is collagenase type V. The arrangement: method as in Hartmann et al. [18]. The conditions noted are these: collagenase results previously published; 95% confidence interval in brackets; ref Hartmann et al. [18]; read-out: Collagenase Inhibition IC50 µM (CI 95 ±); cited from earlier work.
A further experiment has as its system HaCaT keratinocytes. Briefly: Wound scratch assay. In kind it is cell-based, human. To be noted: 1 µM and 10 µM, after 24 h, p < 0.05 vs untreated control. As to the method: HaCaT keratinocytes were provided by Prof. Dr. Norbert E. Fusenig (DKFZ, Heidelberg, Germany) and cultivated in a DMEM medium, supplemented with FCS (10%), penicillin/streptomycin solution (1%), and non-essential amino acids (1%) (PAA, Pasching, Austria). HaCaT keratinocytes were cultivated at 37 °C, 5% CO2.
The evaluation of 4 different MAAs (compounds 1, 2, 4, and 8) on the migration of HaCaT cells was determined as described by Balekar et al.. HaCaT cells were plated into a 12-well plate at a concentration of 1 × 10^5 cells containing Dulbecco’s modified Eagle’s medium culture medium (DMEM) supplemented with 10% fetal calf serum (FCS) and incubated at 37 °C in a humidified 5% CO2 atmosphere until confluence has been reached. After attachment of the cells to the plate, medium was removed and the adherent cell layer was scratched with a sterile pipette tip. Cellular debris was removed by washing off with PBS (2 × 1 mL). Subsequently, the cells were treated with DMEM supplemented with 10% FCS containing the individual MAA test compounds at the concentrations of (10 µM to 1 µM). Control cells received only fresh DMEM +10% FCS, cells used as the positive control were treated with fresh DMEM + 20% FCS. Following, the cell cultures were incubated at […] in a humidified 5% CO2 atmosphere. Finally, the area of each scratch was determined by quantitative imaging at time 0 (just after scratching cell monolayers) and after 24 h treatment with the compounds (Leica DFC300, Wetzlar Germany; 40× magnification). The captured images were then analyzed using Image J software.
The migration rate can be expressed as the percentage of area reduction or wound closure:(2) Wound closure %=100 [Area (t0)−Area( t24)/Area (t0)]
Statistical analysis: The data were analyzed in three independent experiments and were expressed as mean ± SEM. One-way ANOVA, followed by an unpaired t-test to compare control group and treated group was performed. P-value of ≤ 0.05 was considered as statistically significant.

Experiment [3] has as its system UV-A induced MMPs such as MMP-1 and elastase. The arrangement: method as in Ryu et al. [20]. The conditions noted are these: concentrations at 40 µM; ref Ryu et al. [20]; cited from earlier work.
In experiment [4] the target is collagenase type V. Put plainly: Collagenase inhibition assay (spectrofluorometric). The experiment is classed as biochemical. To be noted: for IC50: collagenase type V, MMP-2 fluorogenic substrate, 1% DMSO, 95% confidence interval in brackets, read-out: Collagenase Inhibition IC50 µM (CI 95 ±). How it is done:
The assay was carried out according to a previously published protocol by Hartmann et al.. All required reagents for the assay were purchased from Sigma Aldrich. Both enzyme (collagenase type V; C-9263) and substrate (SCP0192 MMP-2 substrate, Sigma Aldrich) were dissolved in the reagent buffer (Tris–HCl; 10 mM pH 7.3) and diluted from stock solutions to 100 μg/mL (initial) enzyme concentration and 55.55 μg/mL (initial) substrate concentration prior to use. Test samples and standard inhibitor phosphoramidon disodium salt used as positive control were dissolved in H2O/DMSO, always maintaining a final DMSO concentration of 1% in each well. The final reaction volume of 100 μL was composed of 25 μL buffer solution, and 25 μL sample/positive controls which were added first followed by 25 μL enzyme. This mixture was incubated for 10 min at 37 °C. Finally, 25 µL of substrate were added to initiate the readout reaction. The substrate which carries a fluorogenic residue (7-methoxycoumarin-4-yl acetic acid) is continuously dissipated by the enzyme collagenase. Measurements are taken after 30 min at an excitation wavelength of λ = 320 nm and λ = 400 nm emission wavelengths in a 96-well microplate format using an Infinite F 200 pro microplate reader equipped with filter-based technology (Tecan, Männedorf, Switzerland). An untreated control group containing 1% DMSO without sample was set to 100% enzyme activity. Blank wells without enzyme were measured accordingly and subtracted from the fluorescent units of each well. Two positive controls were used. First, the well-established phosphoramidon disodium salt and second, to include natural product based inhibitors, rutin and EGCG were used. Measurements were performed in triplicates using 96 well plates, and each substance was measured in three independent experiments. […] IC50 values were calculated by fitting data (log (Inhibitor) vs. response–variable slope) using GraphPad Prism (GraphPad Software, San Diego, CA, USA).
Statistics: The data were analyzed at least in three independent experiments and were expressed as mean ± SEM. A Shapiro Wilk normality test was performed to confirm the Gaussian distribution of the data. One-way ANOVA, followed by a Dunett’s multiple comparison test in GraphpadPrism 5 were performed to clarify statistical significance. p-Value of ≤ 0.05 was considered statistically significant.

Another experiment deals with collagenase. To be noted: cited from earlier work.
Experiment [5] deals with hen egg white lysozyme (HEWL). The conditions noted are these: read-out: Inhibition of glycation-dependent cross-linking of HEWL, IC50; literature finding, reference not given; cited from earlier work.
Experiment [6] relates to pentosidine-like AGEs. The conditions noted are these: cited from earlier work.
The mark [7] stands for this setting: read-out: Collagenase inhibition IC50.
[8] abbreviates: concentration range 1 to 350 µM.

Where a name gives a salt, the structure may show the parent alone. Read-outs that look alike come from different tables or passages of the source.

In general, IC50 refers to the midpoint of a concentration-inhibition curve.

Turning to `N=C(N)NN` [Aminoguanidine, reference compound], the midpoint of inhibition with pentosidine-like AGEs [1], the IC50, lay at 1400 µM.

For the compound `COC1=C(N[C@@H](CO)C(=O)O)C[C@](O)(CO)CC1=NCC(=O)O` [Compound 1, Shinorine], the IC50 is 103 µM with pentosidine-like AGEs [1] and 104 µM at collagenase type V [2]. The “Migration / wound closure in scratch assay (words)” value (from here on “Migration / wound closure”) with HaCaT keratinocytes was “significant migration and narrowing of the scratch area”.

For the compound `COC1=C(N[C@H](C(=O)O)[C@@H](C)O)C[C@](O)(CO)CC1=NCC(=O)O` [Compound 2, porphyra-334], the IC50 with pentosidine-like AGEs [1] was 90 µM. The IC50 on collagenase type V [2] was 106 µM. Further, in experiment [3], the “Inhibition of UV-A induced MMPs such as MMP-1 and elastase” value was “concentration-dependent inhibition”; the “Procollagen production” value is on record as “increase in procollagen production”. Moreover, the “Migration / wound closure” value with HaCaT keratinocytes was “significant migration and narrowing of the scratch area”.

On to `CNC1=C(OC)C(=N[C@H](C(=O)O)[C@@H](C)O)C[C@](O)(CO)C1` [Compound 3, mycosporine-methylamine-threonine], for which the IC50 came to 150 µM in the experiment on pentosidine-like AGEs [1] and 250 µM on collagenase type V [4].

As to `COC1=C(N[C@@H](C)C(=O)O)C[C@](O)(CO)CC1=NCC(=O)O` [Compound 4, mycosporine-alanine-glycine], the IC50 turned out to be 75 µM in the experiment with pentosidine-like AGEs [1] and 158 µM on collagenase type V [4]. In addition, the “Migration / wound closure” value with HaCaT keratinocytes was “significant migration and narrowing of the scratch area”.

On to `COC1=C(NC[C@@H](C)O)C[C@](O)(CO)CC1=NCC(=O)O` [Compound 5, aplysiapalythine A], for which the IC50 with pentosidine-like AGEs [1] came to 400 µM; on collagenase type V [4], 80.7 µM.

For the compound `COC1=C(NCCO)C[C@](O)(CO)CC1=NCC(=O)O` [Compound 6, asterina-330], the IC50 worked out at 125 µM in the experiment on pentosidine-like AGEs [1] and 70.9 µM on collagenase type V [4].

In the case of `COC1=C(N[C@H](C(=O)O)[C@@H](C)O)C[C@](O)(CO)CC1=N[C@@H](CCC(N)=O)C(=O)O` [Compound 8, bostrychine-B], at collagenase type V [4], the IC50 was determined as 104 µM. For the same compound, the “Migration / wound closure” value is “significant migration and narrowing of the scratch area” in the experiment on HaCaT keratinocytes; “slightly higher wound closure ability” in the experiment with HaCaT keratinocytes (listed as bostrychine B).

In the case of `COC1=C(N[C@H](C(=O)O)[C@@H](C)O)C[C@](O)(CO)CC1=N[C@@H](CCC(=O)O)C(=O)O` [Compound 10, bostrychine-D], the IC50 in the experiment on pentosidine-like AGEs [1] worked out at 85 µM; on collagenase type V [4], 118 µM.

Take `COC1=C(NC[C@@H](C)O)C[C@@](O)(CO)CC1=N[C@@H](CCC(=O)O)C(=O)O` [Compound 11, bostrychine-E]: the IC50 came to 150 µM in the experiment on pentosidine-like AGEs [1] and 163 µM on collagenase type V [4].

With `COC1=C(NCCC(=O)O)C[C@@](O)(CO)CC1=N[C@H](C(=O)O)[C@@H](C)O` [Compound 12, bostrychine-F], the half-inhibitory concentration (IC50) in the experiment with pentosidine-like AGEs [1] was 200 µM; on collagenase type V [4], 90 µM.

`OC[C@H]1O[C@@H](Oc2cc(O)cc(/C=C/c3ccc(O)c(O)c3)c2)[C@H](O)[C@@H](O)[C@@H]1O` [E-astringin]: the IC50 on collagenase (setting [7]) is 125 µM.

Consider `OC[C@H]1O[C@@H](Oc2cc(O)cc(/C=C/c3ccc(O)cc3)c2)[C@H](O)[C@@H](O)[C@@H]1O` [E-piceid], for which the IC50 on collagenase (setting [7]) was 259 µM.

As for `O=C(O[C@@H]1Cc2c(O)cc(O)cc2O[C@@H]1c1cc(O)c(O)c(O)c1)c1cc(O)c(O)c(O)c1` [Epigallocatechingalleate, reference compound], the IC50 at collagenase (used as positive control in many publications, read-out: Collagenase inhibition IC50 (published values)) is approximately 220 µM; on collagenase type V [4], 46.6 µM.

For `CC(C)C[C@H](NP(=O)(O)O[C@@H]1O[C@@H](C)[C@H](O)[C@@H](O)[C@H]1O)C(=O)N[C@@H](Cc1c[nH]c2ccccc12)C(=O)O` [Phosphoramidon, phosphoramidon disodium salt, reference compound], the IC50 on collagenase type V [4] is 1.9 µM.

For the compound `C[C@@H]1O[C@@H](OC[C@H]2O[C@@H](Oc3c(-c4ccc(O)c(O)c4)oc4cc(O)cc(O)c4c3=O)[C@H](O)[C@@H](O)[C@@H]2O)[C@H](O)[C@H](O)[C@H]1O` [Rutin, reference compound], the IC50 in the experiment on pentosidine-like AGEs [1] was found to be 85 µM. For the same compound, the Collagenase inhibition with collagenase type V [4] (at 100 µM, 1% DMSO control group set to 100% enzyme activity) was found to be 100 µM -> 52% Inhibition *.

On to `COC1=C(NCC(C)O)C[C@](O)(CO)CC1=NCC(=O)O` (stereo partly drawn) [aplysiapalythine A], for which the “Collagenase inhibition” value with collagenase type V [4] (setting [8]) was “good inhibition”.

As to `COC1=C(NCC(=O)O)CC(O)(CO)CC1=NCCO` (stereo not drawn) [asterina-330], in the experiment on collagenase type V [4] (setting [8]), the “Collagenase inhibition” value is recorded as “good inhibition”.

For `COC1=C(NCC(=O)O)CC(O)(CO)CC1=NCC(=O)O` (stereo not drawn) [mycosporine-2-glycine], the IC50 in experiment [5] is 1610 µM.

In the case of `COC1=C(NCC(=O)O)C[C@@](O)(CO)CC1=O` [mycosporine-glycine], the “Collagenase inhibition” value with collagenase type V [4] (setting [8]) was “very pronounced inhibition”.

For the compound `COC1=C(NCC(=O)O)CC(O)(CO)CC1=N` (stereo not drawn) [palythine], the “Anti-AGEs activity” value with pentosidine-like AGEs [1] (concentration range 1 µM to 3 mM) is listed as “weakest effect”.

As to `O=c1c(O)c(-c2ccc(O)c(O)c2)oc2cc(O)cc(O)c12` [quercetin], the “AGEs inhibition” value in the experiment with pentosidine-like AGEs [6] was “strong AGEs inhibitor”.

Consider `O=C1c2c(O)cc(O)cc2O[C@H](c2ccc(O)c(OC3O[C@H](CO)[C@@H](O)[C@H](O)[C@H]3O)c2)[C@H]1O` (stereo partly drawn) [taxifolin 3′-O-glucopyranoside], for which, on collagenase (setting [7]), the half-maximal inhibitory concentration (IC50) is 141 µM.

On to `O=C1c2c(O)cc(O)cc2OC(c2ccc(O)c(O)c2)C1O` (stereo not drawn) [taxifolin], for which the concentration for half-maximal inhibition (IC50) at collagenase (setting [7]) is 193 µM.
